The test concerns RAW264.7 mouse macrophages. Kind of test: Suppression of IFNγ-induced NO production (nitric oxide production and cell viability assay). Format: cell-based. As to conditions: RAW264.7 cells, drug pre-treatment 2 hours, then recombinant mouse IFNγ 24 hours; Griess reagent; normalized to cell viability (WST-1). Here is the method:
Assay results for the suppression of IFNγ-induced NO production are shown for several of the compounds of the present invention in Table 1 below. […] Details regarding this assay are provided in the Examples section below. Nitric Oxide Production and Cell Viability Assay. […] On the next day, cells were pre-treated with DMSO or drug (O-200 nM dose range) for 2 hours, and then treated with recombinant mouse IFNγ (R&D Systems) for 24 hours. Nitric Oxide concentration in media was determined using the Griess reagent system (Promega). Cell viability was determined using WST-1 reagent (Roche). IC50 values were determined based on the suppression of IFNγ induced Nitric Oxide production normalized to cell viability.
A general note: Griess reagent forms a coloured azo dye with nitrite.
The IC50 is the concentration needed to halve the response being measured. `CC1(C)CC[C@]2(CCC(=O)O)CC[C@]3(C)[C@H](C(=O)C=C4[C@@]5(C)C=C(C#N)C(=O)C(C)(C)[C@@H]5CC[C@]43C)[C@@H]2C1` [TX63762]: the IC50 came to 1.2 nM.
The same measure for `CCNC(=O)OC[C@]12CCC(C)(C)C[C@H]1[C@H]1C(=O)C=C3[C@@]4(C)C=C(C#N)C(=O)C(C)(C)[C@@H]4CC[C@@]3(C)[C@]1(C)CC2` [TX63930]: 0.9 nM; for `CC(=O)NNC(=O)CC[C@]12CCC(C)(C)C[C@H]1[C@H]1C(=O)C=C3[C@@]4(C)C=C(C#N)C(=O)C(C)(C)[C@@H]4CC[C@@]3(C)[C@]1(C)CC2` [TX64045]: 5.6 nM.

Values taken from patent US10501489B2, “C17-alkanediyl and alkenediyl derivatives of oleanolic acid and methods of use thereof” (REATA PHARMACEUTICALS, INC., priority 2012, dated 2019).
